# Target: 5'-AMP-activated protein kinase catalytic subunit alpha-2 (Homo sapiens) (UniProt P54646)
# Sequence (P54646 whole entry, looked up): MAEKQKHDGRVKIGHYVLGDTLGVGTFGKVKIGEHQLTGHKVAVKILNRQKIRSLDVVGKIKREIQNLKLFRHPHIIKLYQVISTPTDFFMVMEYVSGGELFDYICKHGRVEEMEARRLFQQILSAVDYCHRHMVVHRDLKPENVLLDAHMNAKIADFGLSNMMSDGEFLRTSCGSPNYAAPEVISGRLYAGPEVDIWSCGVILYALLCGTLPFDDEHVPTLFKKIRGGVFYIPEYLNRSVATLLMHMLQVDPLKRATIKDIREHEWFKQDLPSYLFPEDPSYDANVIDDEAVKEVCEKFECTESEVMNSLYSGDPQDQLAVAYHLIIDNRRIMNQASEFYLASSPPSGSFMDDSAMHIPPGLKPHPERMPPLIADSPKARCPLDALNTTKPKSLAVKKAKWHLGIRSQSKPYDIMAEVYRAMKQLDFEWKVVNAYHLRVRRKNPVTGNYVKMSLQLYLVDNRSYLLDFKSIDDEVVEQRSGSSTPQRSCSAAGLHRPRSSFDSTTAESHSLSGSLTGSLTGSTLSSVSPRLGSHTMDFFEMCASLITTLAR
row,SMILES,ΔTm [°C]
1,O=C1c2ccccc2-c2n[nH]c3cccc1c23,2.1
2,Cc1cc2ncc(-c3ccccc3)nc2cc1C,-1
3,CC(C)N(CCO)c1nc(Nc2cccc(Cl)c2)c2ncn(C(C)C)c2n1,0.2

# Now from value to compound:
row,ΔTm [°C],SMILES
1,1.5,O=c1cc(-c2ccc(O)cc2)oc2cc(O)cc(O)c12
2,-0.8,O=C(O)c1cc(NCc2cc(O)ccc2O)ccc1O

# Target: Calcium/calmodulin-dependent protein kinase type II subunit alpha (Homo sapiens) (UniProt Q9UQM7)
# Sequence (Q9UQM7 whole entry): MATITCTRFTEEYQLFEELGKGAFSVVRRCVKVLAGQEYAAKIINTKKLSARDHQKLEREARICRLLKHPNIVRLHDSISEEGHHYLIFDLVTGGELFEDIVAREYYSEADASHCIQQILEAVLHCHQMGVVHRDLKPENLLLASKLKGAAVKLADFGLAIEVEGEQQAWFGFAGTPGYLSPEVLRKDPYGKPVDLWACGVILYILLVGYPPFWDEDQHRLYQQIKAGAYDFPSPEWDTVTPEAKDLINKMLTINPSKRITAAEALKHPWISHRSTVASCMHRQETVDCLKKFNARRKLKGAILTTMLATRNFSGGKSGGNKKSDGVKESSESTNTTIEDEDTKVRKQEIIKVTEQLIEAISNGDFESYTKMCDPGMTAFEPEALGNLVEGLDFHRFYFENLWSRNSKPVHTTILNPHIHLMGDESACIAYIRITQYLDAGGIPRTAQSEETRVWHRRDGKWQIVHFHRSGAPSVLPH
row,SMILES,ΔTm [°C]
1,O=C1c2ccccc2-c2n[nH]c3cccc1c23,0.8
2,Cc1cc2ncc(-c3ccccc3)nc2cc1C,1
3,CC(C)N(CCO)c1nc(Nc2cccc(Cl)c2)c2ncn(C(C)C)c2n1,0.5

# Next, values leading:
row,ΔTm [°C],SMILES
1,0.5,O=c1cc(-c2ccc(O)cc2)oc2cc(O)cc(O)c12
2,0.4,O=C(O)c1cc(NCc2cc(O)ccc2O)ccc1O

# Target: T1, Calcium/calmodulin-dependent protein kinase type IV (Homo sapiens) (UniProt Q16566)
# T1 sequence (whole entry): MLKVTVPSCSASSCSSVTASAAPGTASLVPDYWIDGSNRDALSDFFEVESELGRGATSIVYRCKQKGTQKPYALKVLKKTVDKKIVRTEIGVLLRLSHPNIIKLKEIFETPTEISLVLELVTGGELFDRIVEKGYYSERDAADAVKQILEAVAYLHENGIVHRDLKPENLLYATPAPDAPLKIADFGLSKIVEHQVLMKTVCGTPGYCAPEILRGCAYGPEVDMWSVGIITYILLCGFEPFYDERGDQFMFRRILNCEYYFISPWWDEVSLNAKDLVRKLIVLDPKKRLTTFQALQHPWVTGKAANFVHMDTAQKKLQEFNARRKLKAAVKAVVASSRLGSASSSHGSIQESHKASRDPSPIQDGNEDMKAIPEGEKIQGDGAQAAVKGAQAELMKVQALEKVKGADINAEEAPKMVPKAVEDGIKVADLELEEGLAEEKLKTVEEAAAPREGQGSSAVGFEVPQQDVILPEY
row,SMILES,ΔTm [°C]
1,O=C1c2ccccc2-c2n[nH]c3cccc1c23,1.5
2,Cc1cc2ncc(-c3ccccc3)nc2cc1C,0.4
3,CC(C)N(CCO)c1nc(Nc2cccc(Cl)c2)c2ncn(C(C)C)c2n1,2.2

# Now from value to compound:
row,ΔTm [°C],SMILES
1,2.1,O=c1cc(-c2ccc(O)cc2)oc2cc(O)cc(O)c12
2,0.1,O=C(O)c1cc(NCc2cc(O)ccc2O)ccc1O

# Target: Calcium/calmodulin-dependent protein kinase kinase 2 (Homo sapiens, UniProt Q96RR4)
# Sequence (Q96RR4 2-588 limits assumed): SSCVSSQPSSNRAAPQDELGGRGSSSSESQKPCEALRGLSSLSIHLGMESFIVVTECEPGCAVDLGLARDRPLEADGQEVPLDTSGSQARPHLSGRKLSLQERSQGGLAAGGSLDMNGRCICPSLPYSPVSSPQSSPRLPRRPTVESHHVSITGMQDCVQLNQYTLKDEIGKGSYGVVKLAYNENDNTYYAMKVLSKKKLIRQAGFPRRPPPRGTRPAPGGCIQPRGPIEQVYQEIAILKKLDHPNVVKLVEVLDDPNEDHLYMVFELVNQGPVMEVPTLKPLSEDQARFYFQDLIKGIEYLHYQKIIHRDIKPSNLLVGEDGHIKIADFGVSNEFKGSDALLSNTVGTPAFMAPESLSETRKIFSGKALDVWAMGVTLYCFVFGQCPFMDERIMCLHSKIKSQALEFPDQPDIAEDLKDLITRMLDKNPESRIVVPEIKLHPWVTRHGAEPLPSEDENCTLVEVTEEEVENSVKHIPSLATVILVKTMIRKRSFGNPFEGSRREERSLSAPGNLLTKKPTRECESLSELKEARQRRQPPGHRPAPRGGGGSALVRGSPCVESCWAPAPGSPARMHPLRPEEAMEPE
row,SMILES,ΔTm [°C]
1,O=C1c2ccccc2-c2n[nH]c3cccc1c23,2.4
2,Cc1cc2ncc(-c3ccccc3)nc2cc1C,-0.4
3,CC(C)N(CCO)c1nc(Nc2cccc(Cl)c2)c2ncn(C(C)C)c2n1,2.8

# The next lines start with the values.
row,ΔTm [°C],SMILES
1,3,O=c1cc(-c2ccc(O)cc2)oc2cc(O)cc(O)c12
2,0.8,O=C(O)c1cc(NCc2cc(O)ccc2O)ccc1O

# Target: Serine/threonine-protein kinase Chk2 (Homo sapiens, UniProt O96017)
row,SMILES,ΔTm [°C]
1,O=C1c2ccccc2-c2n[nH]c3cccc1c23,6
2,Cc1cc2ncc(-c3ccccc3)nc2cc1C,-0.3
3,CC(C)N(CCO)c1nc(Nc2cccc(Cl)c2)c2ncn(C(C)C)c2n1,0.6

# More lines, now with the values ahead:
row,ΔTm [°C],SMILES
1,2.7,O=c1cc(-c2ccc(O)cc2)oc2cc(O)cc(O)c12
2,0,O=C(O)c1cc(NCc2cc(O)ccc2O)ccc1O

# Target: Dual specificity protein kinase CLK1 (Homo sapiens) (UniProt P49759)
# Sequence (P49759 whole entry, looked up): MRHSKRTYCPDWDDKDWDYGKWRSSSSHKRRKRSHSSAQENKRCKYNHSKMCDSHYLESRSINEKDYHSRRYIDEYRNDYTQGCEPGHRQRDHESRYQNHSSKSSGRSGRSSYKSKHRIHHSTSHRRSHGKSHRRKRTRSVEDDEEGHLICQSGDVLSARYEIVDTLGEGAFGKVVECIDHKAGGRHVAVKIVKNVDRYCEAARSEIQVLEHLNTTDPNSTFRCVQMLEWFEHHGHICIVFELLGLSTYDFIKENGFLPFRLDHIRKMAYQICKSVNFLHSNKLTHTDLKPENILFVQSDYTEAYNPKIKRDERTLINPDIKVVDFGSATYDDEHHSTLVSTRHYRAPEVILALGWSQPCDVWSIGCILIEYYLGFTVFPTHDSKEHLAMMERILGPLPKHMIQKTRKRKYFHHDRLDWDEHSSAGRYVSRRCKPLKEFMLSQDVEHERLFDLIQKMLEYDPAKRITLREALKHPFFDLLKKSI
row,SMILES,ΔTm [°C]
1,O=C1c2ccccc2-c2n[nH]c3cccc1c23,4.7
2,Cc1cc2ncc(-c3ccccc3)nc2cc1C,1.4
3,CC(C)N(CCO)c1nc(Nc2cccc(Cl)c2)c2ncn(C(C)C)c2n1,5.9

# Now from value to compound:
row,ΔTm [°C],SMILES
1,3.9,O=c1cc(-c2ccc(O)cc2)oc2cc(O)cc(O)c12
2,0.1,O=C(O)c1cc(NCc2cc(O)ccc2O)ccc1O

# Target: Casein kinase I isoform gamma-2 (Homo sapiens) (UniProt P78368)
# Sequence (P78368 whole entry, looked up, canonical isoform): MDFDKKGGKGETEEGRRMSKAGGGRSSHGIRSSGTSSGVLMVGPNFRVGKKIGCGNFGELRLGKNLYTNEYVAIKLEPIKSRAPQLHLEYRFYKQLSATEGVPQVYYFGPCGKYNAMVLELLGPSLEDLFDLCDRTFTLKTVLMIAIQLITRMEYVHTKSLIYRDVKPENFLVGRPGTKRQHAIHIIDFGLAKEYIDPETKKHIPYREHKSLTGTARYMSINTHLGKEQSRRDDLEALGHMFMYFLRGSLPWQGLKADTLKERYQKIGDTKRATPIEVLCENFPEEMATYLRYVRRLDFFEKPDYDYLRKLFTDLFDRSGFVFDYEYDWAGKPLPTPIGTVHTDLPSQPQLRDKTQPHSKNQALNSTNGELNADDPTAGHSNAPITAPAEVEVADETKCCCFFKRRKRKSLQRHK
row,SMILES,ΔTm [°C]
1,O=C1c2ccccc2-c2n[nH]c3cccc1c23,2.5
2,Cc1cc2ncc(-c3ccccc3)nc2cc1C,0.5
3,CC(C)N(CCO)c1nc(Nc2cccc(Cl)c2)c2ncn(C(C)C)c2n1,3.8

# Other lines, results leading:
row,ΔTm [°C],SMILES
1,0.7,O=c1cc(-c2ccc(O)cc2)oc2cc(O)cc(O)c12
2,0.3,O=C(O)c1cc(NCc2cc(O)ccc2O)ccc1O

# Target: Casein kinase I isoform gamma-3 (Homo sapiens) (UniProt Q9Y6M4)
row,SMILES,ΔTm [°C]
1,O=C1c2ccccc2-c2n[nH]c3cccc1c23,2
2,Cc1cc2ncc(-c3ccccc3)nc2cc1C,1.1
3,CC(C)N(CCO)c1nc(Nc2cccc(Cl)c2)c2ncn(C(C)C)c2n1,6.7

# Second part, the compound after the results:
row,ΔTm [°C],SMILES
1,0.7,O=c1cc(-c2ccc(O)cc2)oc2cc(O)cc(O)c12
2,0.3,O=C(O)c1cc(NCc2cc(O)ccc2O)ccc1O

# Target: Tyrosine-protein kinase JAK1 (Homo sapiens) (UniProt P23458)
row,SMILES,ΔTm [°C]
1,O=C1c2ccccc2-c2n[nH]c3cccc1c23,5.5
2,Cc1cc2ncc(-c3ccccc3)nc2cc1C,1.3
3,CC(C)N(CCO)c1nc(Nc2cccc(Cl)c2)c2ncn(C(C)C)c2n1,2.2

# Next, values leading:
row,ΔTm [°C],SMILES
1,4.6,O=c1cc(-c2ccc(O)cc2)oc2cc(O)cc(O)c12
2,-0.2,O=C(O)c1cc(NCc2cc(O)ccc2O)ccc1O

# Target: T2, Dual specificity mitogen-activated protein kinase kinase 6 (Homo sapiens) (UniProt P52564)
# T2 sequence (whole entry): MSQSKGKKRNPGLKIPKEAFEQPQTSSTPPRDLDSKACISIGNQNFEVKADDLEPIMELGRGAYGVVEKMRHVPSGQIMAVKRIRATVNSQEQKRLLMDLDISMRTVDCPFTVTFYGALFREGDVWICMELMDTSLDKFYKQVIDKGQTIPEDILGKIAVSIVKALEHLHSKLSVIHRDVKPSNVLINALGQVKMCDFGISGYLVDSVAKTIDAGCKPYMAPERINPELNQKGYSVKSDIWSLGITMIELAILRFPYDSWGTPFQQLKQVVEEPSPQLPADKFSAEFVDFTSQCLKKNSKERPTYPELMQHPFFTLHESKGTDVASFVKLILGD
row,SMILES,ΔTm [°C]
1,O=C1c2ccccc2-c2n[nH]c3cccc1c23,4.7
2,Cc1cc2ncc(-c3ccccc3)nc2cc1C,0.3
3,CC(C)N(CCO)c1nc(Nc2cccc(Cl)c2)c2ncn(C(C)C)c2n1,0.9

# Results, then the compound that gave them:
row,ΔTm [°C],SMILES
1,2.2,O=c1cc(-c2ccc(O)cc2)oc2cc(O)cc(O)c12
2,-0.2,O=C(O)c1cc(NCc2cc(O)ccc2O)ccc1O

# Target: Mitogen-activated protein kinase 3 (Homo sapiens, UniProt P27361)
# Sequence (P27361 whole entry): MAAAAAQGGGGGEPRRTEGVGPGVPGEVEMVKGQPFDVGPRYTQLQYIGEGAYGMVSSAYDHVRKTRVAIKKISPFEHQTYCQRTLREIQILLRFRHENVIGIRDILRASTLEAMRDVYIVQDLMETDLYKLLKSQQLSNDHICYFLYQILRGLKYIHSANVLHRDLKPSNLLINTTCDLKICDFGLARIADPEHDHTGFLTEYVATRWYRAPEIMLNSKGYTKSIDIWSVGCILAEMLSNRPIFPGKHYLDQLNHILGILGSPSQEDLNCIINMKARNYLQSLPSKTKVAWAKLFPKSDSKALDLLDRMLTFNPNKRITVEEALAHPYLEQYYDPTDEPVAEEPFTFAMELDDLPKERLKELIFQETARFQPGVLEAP
row,SMILES,ΔTm [°C]
1,O=C1c2ccccc2-c2n[nH]c3cccc1c23,0.9
2,Cc1cc2ncc(-c3ccccc3)nc2cc1C,-0.6
3,CC(C)N(CCO)c1nc(Nc2cccc(Cl)c2)c2ncn(C(C)C)c2n1,1.7

# Other lines, results leading:
row,ΔTm [°C],SMILES
1,0.5,O=c1cc(-c2ccc(O)cc2)oc2cc(O)cc(O)c12
2,-0.1,O=C(O)c1cc(NCc2cc(O)ccc2O)ccc1O

# Target: Serine/threonine-protein kinase Nek6 (Homo sapiens) (UniProt Q9HC98)
row,SMILES,ΔTm [°C]
1,O=C1c2ccccc2-c2n[nH]c3cccc1c23,0.9
2,Cc1cc2ncc(-c3ccccc3)nc2cc1C,0.2
3,CC(C)N(CCO)c1nc(Nc2cccc(Cl)c2)c2ncn(C(C)C)c2n1,-0.2

# Next, values leading:
row,ΔTm [°C],SMILES
1,0.2,O=c1cc(-c2ccc(O)cc2)oc2cc(O)cc(O)c12
2,0,O=C(O)c1cc(NCc2cc(O)ccc2O)ccc1O

# Target: T3, 3-phosphoinositide-dependent protein kinase 1 (Homo sapiens) (UniProt O15530)
# T3 sequence (whole entry): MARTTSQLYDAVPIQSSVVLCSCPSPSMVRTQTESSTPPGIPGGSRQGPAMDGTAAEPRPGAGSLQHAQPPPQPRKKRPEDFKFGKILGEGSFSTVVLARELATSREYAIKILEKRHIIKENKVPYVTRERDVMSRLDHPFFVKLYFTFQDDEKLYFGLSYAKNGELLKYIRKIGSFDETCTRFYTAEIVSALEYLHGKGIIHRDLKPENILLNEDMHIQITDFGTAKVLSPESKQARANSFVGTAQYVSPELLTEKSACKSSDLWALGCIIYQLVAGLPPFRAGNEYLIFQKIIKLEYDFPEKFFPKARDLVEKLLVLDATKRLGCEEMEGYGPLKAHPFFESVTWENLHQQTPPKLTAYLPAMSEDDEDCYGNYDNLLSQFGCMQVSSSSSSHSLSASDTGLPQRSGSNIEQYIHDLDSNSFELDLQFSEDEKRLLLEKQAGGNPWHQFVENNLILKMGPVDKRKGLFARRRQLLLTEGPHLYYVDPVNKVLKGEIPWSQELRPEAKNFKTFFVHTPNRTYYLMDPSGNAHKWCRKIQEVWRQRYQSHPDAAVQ
row,SMILES,ΔTm [°C]
1,O=C1c2ccccc2-c2n[nH]c3cccc1c23,-0.1
2,Cc1cc2ncc(-c3ccccc3)nc2cc1C,-0.1
3,CC(C)N(CCO)c1nc(Nc2cccc(Cl)c2)c2ncn(C(C)C)c2n1,-0.8

# Results, then the compound that gave them:
row,ΔTm [°C],SMILES
1,-1.9,O=c1cc(-c2ccc(O)cc2)oc2cc(O)cc(O)c12
2,0.2,O=C(O)c1cc(NCc2cc(O)ccc2O)ccc1O

# Target: cAMP-dependent protein kinase catalytic subunit alpha (Homo sapiens) (UniProt P17612)
row,SMILES,ΔTm [°C]
1,O=C1c2ccccc2-c2n[nH]c3cccc1c23,2.3
2,Cc1cc2ncc(-c3ccccc3)nc2cc1C,1.1
3,CC(C)N(CCO)c1nc(Nc2cccc(Cl)c2)c2ncn(C(C)C)c2n1,1.6

# Results, then the compound that gave them:
row,ΔTm [°C],SMILES
1,1.7,O=c1cc(-c2ccc(O)cc2)oc2cc(O)cc(O)c12
2,-0.2,O=C(O)c1cc(NCc2cc(O)ccc2O)ccc1O

# Target: Serine/threonine-protein kinase RIO2 (Homo sapiens) (UniProt Q9BVS4)
row,SMILES,ΔTm [°C]
1,O=C1c2ccccc2-c2n[nH]c3cccc1c23,2.2
2,Cc1cc2ncc(-c3ccccc3)nc2cc1C,-0.5
3,CC(C)N(CCO)c1nc(Nc2cccc(Cl)c2)c2ncn(C(C)C)c2n1,0.1

# Results, then the compound that gave them:
row,ΔTm [°C],SMILES
1,0.2,O=c1cc(-c2ccc(O)cc2)oc2cc(O)cc(O)c12
2,0,O=C(O)c1cc(NCc2cc(O)ccc2O)ccc1O

# Target: Ribosomal protein S6 kinase alpha-3 (Homo sapiens) (UniProt P51812)
# Sequence (P51812 whole entry): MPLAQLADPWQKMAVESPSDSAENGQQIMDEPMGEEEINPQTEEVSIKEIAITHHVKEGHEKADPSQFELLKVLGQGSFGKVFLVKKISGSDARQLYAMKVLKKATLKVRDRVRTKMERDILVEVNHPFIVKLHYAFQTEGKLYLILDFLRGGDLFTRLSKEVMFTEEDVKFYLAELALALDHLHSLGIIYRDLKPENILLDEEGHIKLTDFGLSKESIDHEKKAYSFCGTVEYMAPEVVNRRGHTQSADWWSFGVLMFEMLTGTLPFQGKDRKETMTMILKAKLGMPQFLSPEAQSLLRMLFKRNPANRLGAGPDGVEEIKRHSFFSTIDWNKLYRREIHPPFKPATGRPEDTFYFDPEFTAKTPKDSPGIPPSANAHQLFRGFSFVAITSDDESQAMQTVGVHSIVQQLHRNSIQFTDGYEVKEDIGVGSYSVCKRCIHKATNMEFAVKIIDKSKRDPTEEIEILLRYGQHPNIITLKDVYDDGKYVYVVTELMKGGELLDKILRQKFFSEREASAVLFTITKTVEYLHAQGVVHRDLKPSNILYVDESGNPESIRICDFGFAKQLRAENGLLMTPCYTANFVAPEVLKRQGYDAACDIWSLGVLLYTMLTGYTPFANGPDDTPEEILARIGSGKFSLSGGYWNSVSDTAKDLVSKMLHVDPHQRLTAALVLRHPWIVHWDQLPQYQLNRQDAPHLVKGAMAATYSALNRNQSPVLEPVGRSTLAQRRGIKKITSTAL
row,SMILES,ΔTm [°C]
1,O=C1c2ccccc2-c2n[nH]c3cccc1c23,3.5
2,Cc1cc2ncc(-c3ccccc3)nc2cc1C,0.2
3,CC(C)N(CCO)c1nc(Nc2cccc(Cl)c2)c2ncn(C(C)C)c2n1,6

# Other lines, results leading:
row,ΔTm [°C],SMILES
1,2.7,O=c1cc(-c2ccc(O)cc2)oc2cc(O)cc(O)c12
2,-1,O=C(O)c1cc(NCc2cc(O)ccc2O)ccc1O

# Target: STE20-like serine/threonine-protein kinase (Homo sapiens) (UniProt Q9H2G2)
# Sequence (Q9H2G2 whole entry, looked up): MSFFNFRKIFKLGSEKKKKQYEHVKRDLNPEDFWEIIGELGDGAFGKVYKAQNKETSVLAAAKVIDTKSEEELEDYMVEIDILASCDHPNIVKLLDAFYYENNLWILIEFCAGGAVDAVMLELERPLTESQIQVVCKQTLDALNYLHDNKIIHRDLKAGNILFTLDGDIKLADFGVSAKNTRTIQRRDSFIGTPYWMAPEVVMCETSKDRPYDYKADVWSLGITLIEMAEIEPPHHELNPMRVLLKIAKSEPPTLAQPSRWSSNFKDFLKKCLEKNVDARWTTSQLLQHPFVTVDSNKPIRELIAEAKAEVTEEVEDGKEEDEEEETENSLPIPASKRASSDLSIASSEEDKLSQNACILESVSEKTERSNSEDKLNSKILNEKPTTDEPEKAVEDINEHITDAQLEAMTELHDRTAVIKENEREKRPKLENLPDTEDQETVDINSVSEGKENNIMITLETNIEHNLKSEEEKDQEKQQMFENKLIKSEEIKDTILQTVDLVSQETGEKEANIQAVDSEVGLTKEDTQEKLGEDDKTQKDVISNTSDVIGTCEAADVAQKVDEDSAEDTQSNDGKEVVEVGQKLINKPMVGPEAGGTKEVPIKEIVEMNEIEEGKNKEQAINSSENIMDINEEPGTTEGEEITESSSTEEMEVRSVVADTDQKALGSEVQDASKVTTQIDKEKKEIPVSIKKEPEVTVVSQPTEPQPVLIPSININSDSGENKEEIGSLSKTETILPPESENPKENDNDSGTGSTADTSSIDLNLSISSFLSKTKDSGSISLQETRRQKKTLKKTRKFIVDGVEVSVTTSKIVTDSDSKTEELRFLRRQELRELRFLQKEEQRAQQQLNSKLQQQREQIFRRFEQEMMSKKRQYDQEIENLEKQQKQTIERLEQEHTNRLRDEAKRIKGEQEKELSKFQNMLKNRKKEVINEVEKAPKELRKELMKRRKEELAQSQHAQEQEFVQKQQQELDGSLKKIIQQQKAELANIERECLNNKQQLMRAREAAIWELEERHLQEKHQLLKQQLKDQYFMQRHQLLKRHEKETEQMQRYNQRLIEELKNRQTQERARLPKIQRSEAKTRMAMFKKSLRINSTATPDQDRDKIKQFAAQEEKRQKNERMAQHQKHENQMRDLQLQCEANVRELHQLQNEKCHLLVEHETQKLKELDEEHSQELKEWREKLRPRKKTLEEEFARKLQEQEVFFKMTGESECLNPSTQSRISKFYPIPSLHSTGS
row,SMILES,ΔTm [°C]
1,O=C1c2ccccc2-c2n[nH]c3cccc1c23,2.2
2,Cc1cc2ncc(-c3ccccc3)nc2cc1C,0.4
3,CC(C)N(CCO)c1nc(Nc2cccc(Cl)c2)c2ncn(C(C)C)c2n1,2.9

# Results, then the compound that gave them:
row,ΔTm [°C],SMILES
1,2.4,O=c1cc(-c2ccc(O)cc2)oc2cc(O)cc(O)c12
2,-0.5,O=C(O)c1cc(NCc2cc(O)ccc2O)ccc1O

# Target: TRAF2 and NCK-interacting protein kinase (Homo sapiens) (UniProt Q9UKE5)
row,SMILES,ΔTm [°C]
1,O=C1c2ccccc2-c2n[nH]c3cccc1c23,3
2,Cc1cc2ncc(-c3ccccc3)nc2cc1C,0.6
3,CC(C)N(CCO)c1nc(Nc2cccc(Cl)c2)c2ncn(C(C)C)c2n1,3.6

# Results, then the compound that gave them:
row,ΔTm [°C],SMILES
1,5.3,O=c1cc(-c2ccc(O)cc2)oc2cc(O)cc(O)c12
2,0,O=C(O)c1cc(NCc2cc(O)ccc2O)ccc1O

# Target: T4, Serine/threonine-protein kinase VRK3 (Homo sapiens) (UniProt Q8IV63)
# T4 sequence (whole entry): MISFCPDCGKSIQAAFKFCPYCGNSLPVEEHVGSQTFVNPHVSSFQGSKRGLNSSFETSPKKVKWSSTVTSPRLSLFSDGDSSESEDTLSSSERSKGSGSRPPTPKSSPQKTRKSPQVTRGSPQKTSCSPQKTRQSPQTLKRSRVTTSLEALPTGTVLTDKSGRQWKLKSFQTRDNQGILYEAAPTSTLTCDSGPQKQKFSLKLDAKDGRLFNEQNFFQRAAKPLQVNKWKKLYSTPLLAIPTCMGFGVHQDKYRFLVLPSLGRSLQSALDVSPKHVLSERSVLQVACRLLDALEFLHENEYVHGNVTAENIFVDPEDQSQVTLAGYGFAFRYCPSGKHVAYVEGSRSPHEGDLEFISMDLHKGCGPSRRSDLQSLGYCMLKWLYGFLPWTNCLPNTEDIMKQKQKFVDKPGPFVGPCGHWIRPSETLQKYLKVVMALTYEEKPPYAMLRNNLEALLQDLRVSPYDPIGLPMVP
row,SMILES,ΔTm [°C]
1,O=C1c2ccccc2-c2n[nH]c3cccc1c23,0.1
2,Cc1cc2ncc(-c3ccccc3)nc2cc1C,1.1
3,CC(C)N(CCO)c1nc(Nc2cccc(Cl)c2)c2ncn(C(C)C)c2n1,0.4

# The remaining lines, values ahead:
row,ΔTm [°C],SMILES
1,0.2,O=c1cc(-c2ccc(O)cc2)oc2cc(O)cc(O)c12
2,0.1,O=C(O)c1cc(NCc2cc(O)ccc2O)ccc1O
